From US8129371B2, “Thienopyrimidine and pyrazolopyrimidine compounds and their use as mTOR kinase and PI3 kinase inhibitors” (Wyeth LLC, priority 2007, dated 2012) come the findings set out here.

Structures are written as SMILES. Like-named read-outs stand apart in the source and are kept apart here.

One test has as its target T1, Human mTOR (FLAG-TOR) (Homo sapiens, UniProt P42345).
T1 construct: FLAG
The experiment in a line: Human mTOR kinase assay with purified enzyme, DELFIA format. It is filed as biochemical. The gist of the method:
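DELFIA readout: Eu-anti-P(T389)-S6K antibody (40 ng/mL, 1 h) on captured His6-S6K from the stopped reaction. Kinase step used purified FLAG-tagged human mTOR with test compound in HEPES (pH 7.4)/MnCl2/DTT buffer, 2 h at room temperature (linear 1–6 h), terminated by EDTA/EGTA.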

In test [1] the target is T2, PI3K (Homo sapiens, UniProt P42336).
T2 construct: PI3 Kinase α IC50; other: PI3 Kinase α; other: PI3 Kinase α isoform, fluorescence polarization
In words: Fluorescence polarization assay for PI3K. It is filed as biochemical. The conditions noted are these: read-out: PI3 Kinase α IC50. The essentials: (§1)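 Fluorescence-polarization competition readout: after 30–60 min of PIP2/ATP turnover in 1% DMSO, a stop mix with GST-GRP (70 nM) and red probe (10 nM) was added.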

Test [2] deals with T3, PI3K (Homo sapiens, UniProt P48736).
T3 construct: PI3 Kinase γ IC50; other: PI3 Kinase γ; other: PI3 Kinase γ isoform, fluorescence polarization
The experiment in a line: Fluorescence polarization assay for PI3K. It is filed as biochemical. The conditions noted are these: read-out: PI3 Kinase γ IC50. The essentials:
as §1
In general terms: Fluorescence polarisation rises when a labelled molecule tumbles more slowly, as on binding a larger partner.

The next test deals with prostate line LNCap. In words: In vitro cell culture growth assay (MTS), LNCap. It is filed as cell-based. The conditions noted are these: Homo sapiens, LNCaP, 72 h, LNCap cells, three days after drug treatment. The gist of the method:
(§2)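 Plate cells; add inhibitors on day 1; after 3 days' treatment, add MTS; read A490; express as percent growth of vehicle-treated control.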

The subject of the next test is breast line MDA468. In words: In vitro cell culture growth assay (MTS), MDA468. It is filed as cell-based. The note with it: Homo sapiens, 72 h, MDA468 cells, three days after drug treatment. The gist of the method: as §2
Setting [3] is: purified human mTOR enzyme, DELFIA format.
Where [4] appears, read: PI3 Kinase α isoform, fluorescence polarization.
The mark [5] stands for this setting: PI3 Kinase γ isoform, fluorescence polarization.

T2 sequence (P42336 whole entry, canonical isoform): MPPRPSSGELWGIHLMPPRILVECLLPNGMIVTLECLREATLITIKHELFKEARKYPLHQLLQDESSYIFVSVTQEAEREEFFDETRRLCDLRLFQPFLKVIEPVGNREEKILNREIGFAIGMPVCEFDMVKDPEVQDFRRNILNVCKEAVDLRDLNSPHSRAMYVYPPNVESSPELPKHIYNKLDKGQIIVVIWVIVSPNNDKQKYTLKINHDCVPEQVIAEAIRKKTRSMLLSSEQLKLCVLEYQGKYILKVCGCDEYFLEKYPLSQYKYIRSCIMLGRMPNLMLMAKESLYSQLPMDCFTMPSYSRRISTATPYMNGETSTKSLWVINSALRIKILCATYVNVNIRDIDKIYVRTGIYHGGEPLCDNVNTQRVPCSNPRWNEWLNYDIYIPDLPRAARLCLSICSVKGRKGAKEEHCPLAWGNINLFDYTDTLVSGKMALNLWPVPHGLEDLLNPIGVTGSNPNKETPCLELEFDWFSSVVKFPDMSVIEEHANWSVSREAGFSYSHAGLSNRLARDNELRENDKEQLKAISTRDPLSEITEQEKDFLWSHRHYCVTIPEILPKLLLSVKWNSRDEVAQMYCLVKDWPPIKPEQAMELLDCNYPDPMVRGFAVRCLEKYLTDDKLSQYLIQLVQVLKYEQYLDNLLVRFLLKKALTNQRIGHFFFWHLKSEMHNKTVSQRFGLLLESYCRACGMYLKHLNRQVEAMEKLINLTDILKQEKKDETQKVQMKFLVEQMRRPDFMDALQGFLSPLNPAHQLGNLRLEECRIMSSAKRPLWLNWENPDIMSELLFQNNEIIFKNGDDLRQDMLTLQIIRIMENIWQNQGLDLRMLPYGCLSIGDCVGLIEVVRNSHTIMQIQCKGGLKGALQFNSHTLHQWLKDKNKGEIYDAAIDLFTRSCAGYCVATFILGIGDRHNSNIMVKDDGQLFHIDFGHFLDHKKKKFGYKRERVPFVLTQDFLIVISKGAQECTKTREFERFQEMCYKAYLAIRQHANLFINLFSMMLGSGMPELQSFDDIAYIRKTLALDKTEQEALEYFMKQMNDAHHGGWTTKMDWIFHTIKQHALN
T3 sequence (P48736 whole entry, canonical isoform): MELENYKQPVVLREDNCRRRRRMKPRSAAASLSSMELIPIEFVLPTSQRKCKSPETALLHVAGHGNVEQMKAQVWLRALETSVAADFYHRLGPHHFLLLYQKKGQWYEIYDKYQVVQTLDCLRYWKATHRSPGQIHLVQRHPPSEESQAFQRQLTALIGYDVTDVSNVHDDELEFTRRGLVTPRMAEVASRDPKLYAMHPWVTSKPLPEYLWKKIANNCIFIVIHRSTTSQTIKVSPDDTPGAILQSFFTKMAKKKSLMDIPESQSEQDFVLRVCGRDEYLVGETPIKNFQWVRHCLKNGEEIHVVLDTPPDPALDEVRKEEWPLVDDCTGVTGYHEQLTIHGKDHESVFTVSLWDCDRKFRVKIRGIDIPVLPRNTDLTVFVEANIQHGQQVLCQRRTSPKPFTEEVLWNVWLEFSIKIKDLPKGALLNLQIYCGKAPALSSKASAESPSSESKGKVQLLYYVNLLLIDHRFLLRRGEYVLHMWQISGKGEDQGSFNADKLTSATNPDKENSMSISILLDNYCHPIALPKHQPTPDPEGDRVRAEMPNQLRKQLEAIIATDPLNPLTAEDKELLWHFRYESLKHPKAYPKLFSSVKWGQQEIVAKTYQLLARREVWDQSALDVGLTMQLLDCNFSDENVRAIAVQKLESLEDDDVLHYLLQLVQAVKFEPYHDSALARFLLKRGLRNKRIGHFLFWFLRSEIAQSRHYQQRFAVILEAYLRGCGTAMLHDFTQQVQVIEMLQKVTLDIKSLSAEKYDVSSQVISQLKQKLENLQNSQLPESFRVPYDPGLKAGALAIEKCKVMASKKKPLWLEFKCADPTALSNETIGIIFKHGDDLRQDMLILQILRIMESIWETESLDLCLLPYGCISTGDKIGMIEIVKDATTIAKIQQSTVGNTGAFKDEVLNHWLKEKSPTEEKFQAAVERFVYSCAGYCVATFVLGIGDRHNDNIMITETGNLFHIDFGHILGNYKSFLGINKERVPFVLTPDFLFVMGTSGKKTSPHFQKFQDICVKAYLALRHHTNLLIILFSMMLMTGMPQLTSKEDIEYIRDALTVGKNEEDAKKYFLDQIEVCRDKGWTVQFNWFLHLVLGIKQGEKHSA

As to `CN(C)c1cccc(NC(=O)Nc2ccc(-c3nc(N4CC5CCC(C4)O5)c4cnn(CC(F)(F)F)c4n3)cc2)c1` [Example 257, 1-[3-(dimethylamino)phenyl]-3-{4-[4-(8-oxa-3-azabicyclo[3.2.1]oct-3-yl)-1-(2,2,2-trifluoroethyl)-1H-pyrazolo[3,4-d]pyrimidin-6-yl]phenyl}urea], the half-inhibitory concentration (IC50) was 1.8 nM against Human mTOR (FLAG-TOR); 344 nM at PI3K [1] (PI3 Kinase α); 4240 nM at PI3K [2] (PI3 Kinase γ); less than 1 nM in the test with prostate line LNCap; 3 nM in the test with breast line MDA468.
As to `CN1CCN(Cc2cc3nc(-c4ccc(NC(=O)Nc5ccc(C(N)=O)cc5)cc4)nc(N4CC5CCC(C4)O5)c3s2)CC1` [Example 428, 4-{[(4-{6-[(4-methylpiperazin-1-yl)methyl]-4-(8-oxa-3-azabicyclo[3.2.1]oct-3-yl)thieno[3,2-d]pyrimidin-2-yl}phenyl)carbamoyl]amino}benzamide], the concentration for half-maximal inhibition (IC50) on Human mTOR (FLAG-TOR) (setting [3]) turned out to be 1.5 nM; on PI3K [1] (setting [4]), 34 nM; on PI3K [2] (setting [5]) it was 815 nM; with prostate line LNCap, 240 nM; with breast line MDA468, 110 nM.
Take `CN(C)CCn1ncc2c(N3CC4CCC(C3)O4)nc(-c3ccc(NC(=O)Nc4ccc(N5CCN(C)CC5)cc4)cc3)nc21` [Example 159, 1-(4-{1-[2-(dimethylamino)ethyl]-4-(8-oxa-3-azabicyclo[3.2.1]oct-3-yl)-1H-pyrazolo[3,4-d]pyrimidin-6-yl}phenyl)-3-[4-(4-methylpiperazin-1-yl)phenyl]urea]: the IC50 against Human mTOR (FLAG-TOR) was 4.85 nM; on PI3K [1] (PI3 Kinase α), 188 nM; on PI3K [2] (PI3 Kinase γ), 3820 nM; in the test on prostate line LNCap, 18 nM; with breast line MDA468 it was 90 nM.
With `O=CN1CC2CN(c3nc(-c4ccc(NC(=O)Nc5ccncc5)cc4)nc4c3cnn4CC(F)(F)F)CC(C1)O2` [Example 338, 1-{4-[4-(7-formyl-9-oxa-3,7-diazabicyclo[3.3.1]non-3-yl)-1-(2,2,2-trifluoroethyl)-1H-pyrazolo[3,4-d]pyrimidin-6-yl]phenyl}-3-pyridin-4-ylurea], the IC50 was 787 nM against Human mTOR (FLAG-TOR) (setting [3]); 9500 nM on PI3K [1] (setting [4]); more than 10000 nM on PI3K [2] (setting [5]); 2950 nM in the test with prostate line LNCap; 1870 nM in the test with breast line MDA468.
Take `O=C(NCCO)Nc1ccc(-c2nc(N3CC4CCC(C3)O4)c3cnn(CCO)c3n2)cc1` [Example 196, 1-(2-hydroxyethyl)-3-{4-[1-(2-hydroxyethyl)-4-(8-oxa-3-azabicyclo[3.2.1]oct-3-yl)-1H-pyrazolo[3,4-d]pyrimidin-6-yl]phenyl}urea]: the concentration for half-maximal inhibition (IC50) against Human mTOR (FLAG-TOR) was 2.2 nM; on PI3K [1] (PI3 Kinase α) it was 607 nM; at PI3K [2] (PI3 Kinase γ), 7330 nM; in the test on prostate line LNCap, 10000 nM; in the test on breast line MDA468 it was 13000 nM.
For `C=Cc1nn(CC)c2nc(-c3ccc(NC(=O)NC)cc3)nc(N3CC4CCC(C3)O4)c12` [Example 350, 1-{4-[1-ethyl-4-(8-oxa-3-azabicyclo[3.2.1]oct-3-yl)-3-vinyl-1H-pyrazolo[3,4-d]pyrimidin-6-yl]phenyl}-3-methylurea], the concentration for half-maximal inhibition (IC50) at Human mTOR (FLAG-TOR) (setting [3]) was 1.95 nM; at PI3K [1] (setting [4]) it was 565 nM; at PI3K [2] (setting [5]) it was 6580 nM; in the test on prostate line LNCap, 130 nM; in the test on breast line MDA468, 480 nM.
On the same counts, the results for `O=C(Nc1ccc(-c2nc(N3C[C@H]4C[C@@H]3CO4)c3cnn(CC(F)(F)F)c3n2)cc1)Nc1cccnc1` [Example 344, 1-(4-{4-[(1R,4R)-2-oxa-5-azabicyclo[2.2.1]hept-5-yl]-1-(2,2,2-trifluoroethyl)-1H-pyrazolo[3,4-d]pyrimidin-6-yl}phenyl)-3-pyridin-3-ylurea] are 17 nM, 1940 nM, more than 10000 nM, 660 nM and 1000 nM.
On to `COC(=O)N1CCC(n2ncc3c(N4C5CCC4COC5)nc(-c4ccc(NC(=O)Nc5ccccc5)cc4)nc32)CC1` [Example 360, methyl 4-[4-(3-oxa-8-azabicyclo[3.2.1]oct-8-yl)-6-{4-[(phenylcarbamoyl)amino]phenyl}-1H-pyrazolo[3,4-d]pyrimidin-1-yl]piperidine-1-carboxylate], for which the half-inhibitory concentration (IC50) against Human mTOR (FLAG-TOR) (setting [3]) was determined as 0.425 nM; at PI3K [1] (setting [4]) it was 1460 nM; on PI3K [2] (setting [5]) it was 2150 nM; in the test with prostate line LNCap it was 10 nM; in the test with breast line MDA468, 40 nM.
On the same counts, the results for `CNC(=O)Nc1ccc(-c2nc(N3CC4CCC(C3)O4)c3cnn([C@H]4CC[C@H](O)CC4)c3n2)cc1` (relative stereo) [Example 380, 1-{4-[1-(trans-4-hydroxycyclohexyl)-4-(8-oxa-3-azabicyclo[3.2.1]oct-3-yl)-1H-pyrazolo[3,4-d]pyrimidin-6-yl]phenyl}-3-methylurea] are 0.245 nM, 882 nM, more than 10000 nM, 20 nM and 70 nM.
As to `O=C(Nc1ccc(-c2nc(N3C4CCC3COC4)c3cnn(CC(F)(F)F)c3n2)cc1)Nc1ccc(N2CCOCC2)nc1` [Example 274, 1-(6-morpholin-4-ylpyridin-3-yl)-3-{4-[4-(3-oxa-8-azabicyclo[3.2.1]oct-8-yl)-1-(2,2,2-trifluoroethyl)-1H-pyrazolo[3,4-d]pyrimidin-6-yl]phenyl}urea], the half-inhibitory concentration (IC50) is 0.245 nM at Human mTOR (FLAG-TOR); 1210 nM at PI3K [1] (PI3 Kinase α); 7310 nM on PI3K [2] (PI3 Kinase γ); less than 1 nM in the test on prostate line LNCap; 20 nM in the test on breast line MDA468.
Regarding `O=C(Nc1ccc(-c2nc(N3C[C@@H]4C[C@H]3CO4)c3cnn(CC(F)(F)F)c3n2)cc1)Nc1ccc(N2CCOCC2)nc1` [Example 299, 1-(6-morpholin-4-ylpyridin-3-yl)-3-(4-{4-[(1S,4S)-2-oxa-5-azabicyclo[2.2.1]hept-5-yl]-1-(2,2,2-trifluoroethyl)-1H-pyrazolo[3,4-d]pyrimidin-6-yl}phenyl)urea], the IC50 against Human mTOR (FLAG-TOR) (setting [3]) is 2.85 nM; on PI3K [1] (setting [4]), 10200 nM; on PI3K [2] (setting [5]), more than 10000 nM; in the test with prostate line LNCap, 10 nM; in the test on breast line MDA468, 42 nM.
With `COC(=O)Nc1ccc(-c2nc(N3CC4CCC(C3)O4)c3cnn(C4CCC5(CC4)OCCO5)c3n2)cc1` [Example 377, methyl {4-[1-(1,4-dioxaspiro[4.5]dec-8-yl)-4-(8-oxa-3-azabicyclo[3.2.1]oct-3-yl)-1H-pyrazolo[3,4-d]pyrimidin-6-yl]phenyl}carbamate], the IC50 on Human mTOR (FLAG-TOR) (setting [3]) is 2.5 nM; on PI3K [1] (setting [4]), 7360 nM; on PI3K [2] (setting [5]), more than 10000 nM; in the test with prostate line LNCap it was 140 nM; in the test on breast line MDA468 it was 1200 nM.
As to `CCNC(=O)Nc1ccc(-c2nc(N3CC4CCC(C3)O4)c3cnn(C4CCN(C(=O)OC(C)(C)C)CC4)c3n2)cc1` [Example 20, tert-butyl4-[6-{4-[(ethylcarbamoyl)amino]phenyl}-4-(8-oxa-3-azabicyclo[3.2.1]oct-3-yl)-1H-pyrazolo[3,4-d]pyrimidin-1-yl]piperidine-1-carboxylate], the IC50 is 0.47 nM against Human mTOR (FLAG-TOR); 2350 nM on PI3K [1] (PI3 Kinase α); more than 10000 nM at PI3K [2] (PI3 Kinase γ); 27 nM with prostate line LNCap; 98 nM in the test on breast line MDA468.

Broadly, the IC50 is the point on the concentration scale where inhibition reaches its midpoint.
